Data reported in patent EP4578856A1, “HETEROCYCLIC COMPOUND” (Ubience Inc., priority 2022, dated 2024).

Molecular target: ROCK2 protein (Homo sapiens, UniProt O75116)
Experiment: Degradation inducing activity of ROCK2 protein in HUVEC cells, Western blotting (Simple Western JESS)
Format: cell-based
Parameters: endogenous in cells; host or cells: HUVEC (ATCC CRL-1730)
Details: HUVEC, 24 h; for inhibition at 1 µM: degradation rate at 1 µM; for inhibition at 10 µM: degradation rate at 10 µM
Method: In vitro degradation inducing activity of ROCK2 protein of compounds of Examples was evaluated by Western Blotting (WB).
By a test compound, 10 mM DMSO solution was prepared, which was used as a 10 µM test compound solution. Further, the solution was diluted 10-fold with DMSO to prepare a 1 mM solution, which was used as a 1 µM test compound solution.
HUVEC cells (ATCC: CRL-1730, Lot: 70041472) were cultured in F-12K medium supplemented with 10% FBS, 0.1 mg/mL heparin, […] Endothelial Cell Growth Supplement (ECGS, Corning), and 1% Penicillin/Streptomycin. The HUVEC cells seeded in a 24 well plate at 50,000 cells/well/1 mL were cultured for 24 hours, and then 1 µL of DMSO or a test compound solution was added thereto and treatment was performed for 24 hours. Cells were harvested and lysed for 20 minutes on ice using lysis buffer (Cell Signaling Technology, Cat#9803) supplemented with protease inhibitor cocktail (Sigma, Cat#P8340; Roche, Cat#P11873580001), and phosphatase inhibitor cocktail (Sigma, Cat#P5726, P0044). The lysate was sonicated (15 seconds, amplitude 30%, 1 cycle) and then centrifuged at 12500 rpm for 15 minutes at 4°C. The protein concentration was determined by BCA assay kit (Thermo Fisher Scientific, Cat#23225).
The western blotting was performed using Simple Western JESS (protein simple). A cell lysis sample (protein amount; about 1.06 µg) was loaded on a plate of Simple Western JESS, and the expression level of ROCK2 protein was detected using a 12-230 kDa Wes Separation Module (Protein simple, Cat#SM-WO04), an Anti-Rabbit Detection Module for Wes (Protein simple, Cat#DM-001), and a Total Protein Detection Module for Wes (Protein simple, Cat#DM-TP01). As the primary antibody, a material obtained by diluting ROCK2 (D1B1) Rabbit mAb (Cell Signaling Technology, Cat#9029) at 1:10 was used, and as the secondary antibody, a material obtained by diluting HRP-labeled anti-rabbit IgG antibody (Cell Signaling Technology, Cat#7074S) at 1:100 was used. The expression level of the target protein was standardized using the total protein amount loaded as a reference. The standardized expression level data of the control (DMSO) was taken as 100%, and the degradation rate (%) was calculated from the average standardized expression level data of the test compound. All analysis steps, such as data detection and analysis, are fully automated.
With respect to the ROCK2 protein degradation rate of the test compound, the protein degradation rates (%) at the evaluation concentrations were set to A ≥ 75%, 75% > B ≥ 50%, 50% > C ≥ 25%, and D < 25%, and are shown in Table 7.

Chain of ROCK2 protein (O75116 whole entry): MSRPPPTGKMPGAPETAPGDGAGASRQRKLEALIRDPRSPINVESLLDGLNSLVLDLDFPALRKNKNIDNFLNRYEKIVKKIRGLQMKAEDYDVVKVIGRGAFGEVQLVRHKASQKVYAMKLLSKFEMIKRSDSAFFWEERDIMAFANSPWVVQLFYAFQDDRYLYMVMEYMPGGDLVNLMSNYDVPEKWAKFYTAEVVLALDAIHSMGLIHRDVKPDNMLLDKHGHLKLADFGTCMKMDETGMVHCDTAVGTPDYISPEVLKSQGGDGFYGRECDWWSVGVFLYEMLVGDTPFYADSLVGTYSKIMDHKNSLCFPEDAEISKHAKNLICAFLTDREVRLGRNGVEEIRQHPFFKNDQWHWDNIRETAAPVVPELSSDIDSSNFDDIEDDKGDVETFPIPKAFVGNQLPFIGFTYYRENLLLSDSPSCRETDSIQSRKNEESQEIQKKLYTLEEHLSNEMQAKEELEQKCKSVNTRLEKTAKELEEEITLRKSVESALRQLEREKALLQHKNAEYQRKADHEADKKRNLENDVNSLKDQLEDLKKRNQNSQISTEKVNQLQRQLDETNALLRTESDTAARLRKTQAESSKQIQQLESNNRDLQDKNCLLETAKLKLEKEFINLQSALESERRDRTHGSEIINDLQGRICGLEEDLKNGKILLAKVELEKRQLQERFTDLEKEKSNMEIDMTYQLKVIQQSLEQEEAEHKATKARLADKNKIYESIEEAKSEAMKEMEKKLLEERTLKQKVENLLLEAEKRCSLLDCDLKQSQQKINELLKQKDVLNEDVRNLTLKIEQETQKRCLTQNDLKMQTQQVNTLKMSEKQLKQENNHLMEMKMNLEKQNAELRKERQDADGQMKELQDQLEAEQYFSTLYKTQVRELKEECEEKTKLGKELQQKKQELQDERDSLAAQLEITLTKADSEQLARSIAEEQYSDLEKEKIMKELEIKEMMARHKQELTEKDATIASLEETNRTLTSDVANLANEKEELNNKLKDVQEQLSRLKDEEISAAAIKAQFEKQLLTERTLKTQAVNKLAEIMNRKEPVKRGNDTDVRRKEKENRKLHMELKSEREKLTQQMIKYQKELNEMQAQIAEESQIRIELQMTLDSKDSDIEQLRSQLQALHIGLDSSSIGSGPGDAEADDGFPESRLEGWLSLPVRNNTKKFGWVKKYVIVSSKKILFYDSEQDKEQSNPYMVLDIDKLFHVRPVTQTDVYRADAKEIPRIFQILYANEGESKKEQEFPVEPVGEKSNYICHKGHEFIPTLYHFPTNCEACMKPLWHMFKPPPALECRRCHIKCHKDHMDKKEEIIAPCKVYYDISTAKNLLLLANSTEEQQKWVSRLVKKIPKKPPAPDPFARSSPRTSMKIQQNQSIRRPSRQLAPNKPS

| inhibition at 1 µM [%] | inhibition at 10 µM [%] | Compound |
| --- | --- | --- |
| < 25 | 50 to 75 | COC[C@H]1CN[C@H](C)CN1CC(=O)N1CC(C)(C)c2ncc(Cc3ccccc3OCCOCCOCCOCCOCCOCCOCCN[C@H](Cc3cccc(F)c3)C(=O)Nc3ccc(-c4ccncc4)cc3)cc21 [Example 76, (R)-2-(3-Fluorobenzyl)-23-(2-((1-(2-((2R,5R)-2-(methoxymethyl)-5-methylpiperazin-1-yl)acetyl)-3,3-dimethyl-2,3-dihydro-1H-pyrrolo[3,2-b]pyridin-6-yl)methyl)phenoxy)-N-(4-(pyridin-4-yl)phenyl)-6,9,12,15,18,21-hexaoxa-3-azatricosanamide] |
| < 25 | ≥ 75 | COC[C@H]1CN[C@H](C)CN1CC(=O)N1CC(C)(C)c2ncc(Cc3ccccc3OCCOCCOCCOCCN[C@H](Cc3cccc(F)c3)C(=O)Nc3ccc(-c4ccncc4)cc3)cc21 [Example 73, (R)-2-(3-Fluorobenzyl)-14-(2-((1-(2-((2R,5R)-2-(methoxymethyl)-5-methylpiperazin-1-yl)acetyl)-3,3-dimethyl-2,3-dihydro-1H-pyrrolo[3,2-b]pyridin-6-yl)methyl)phenoxy)-N-(4-(pyridin-4-yl)phenyl)-6,9,12-trioxa-3-azatetradecanamide] |
| 50 to 75 | ≥ 75 | COC[C@H]1CN[C@H](C)CN1CC(=O)N1CC(C)(C)c2ncc(Cc3cccc(OCCOCCOCCOCCOCCOCCN[C@H](C)c4ccc(C(=O)Nc5ccncc5)cc4)c3)cc21 [Example 47, 4-((R)-20-(3-((1-(2-((2R,5R)-2-(Methoxymethyl)-5-methylpiperazin-1-yl)acetyl)-3,3-dimethyl-2,3-dihydro-1H-pyrrolo[3,2-b]pyridin-6-yl)methyl)phenoxy)-6,9,12,15,18-pentaoxa-3-azaicosan-2-yl)-N-(pyridin-4-yl)benzamide] |
| 25 to 50 | ≥ 75 | COC[C@H]1CN[C@H](C)CN1CC(=O)N1CC(C)(C)c2ncc(Cc3ccccc3OCCOCCOCCOCCOCCOCCNC[C@@H](C(=O)Nc3ccc4cnccc4c3)c3ccccc3)cc21 [Example 82, (S)-N-(Isoquinolin-6-yl)-1-(2-((1-(2-((2R,5R)-2-(methoxymethyl)-5-methylpiperazin-1-yl)acetyl)-3,3-dimethyl-2,3-dihydro-1H-pyrrolo[3,2-b]pyridin-6-yl)methyl)phenoxy)-20-phenyl-3,6,9,12,15-pentaoxa-18-azahenicosan-21-amide] |
| < 25 | 50 to 75 | COC[C@H]1CN[C@H](C)CN1CC(=O)N1CC(C)(C)c2ncc(Cc3cccc(OCCOCCOCCOCCOCCOCCOCCN[C@H](Cc4cccc(F)c4)C(=O)Nc4ccc(-c5ccncc5)cc4)c3)cc21 [Example 55, (R)-2-(3-Fluorobenzyl)-23-(3-((1-(2-((2R,5R)-2-(methoxymethyl)-5-methylpiperazin-1-yl)acetyl)-3,3-dimethyl-2,3-dihydro-1H-pyrrolo[3,2-b]pyridin-6-yl)methyl)phenoxy)-N-(4-(pyridin-4-yl)phenyl)-6,9,12,15,18,21-hexaoxa-3-azatricosanamide] |
| 50 to 75 | 25 to 50 | COC[C@H]1CN[C@H](C)CN1CC(=O)N1CC(C)(C)c2ncc(Cc3ccccc3OCCOCCOCCOCCOCCNC[C@@H](C(=O)Nc3ccc4cnccc4c3)c3ccccc3)cc21 [Example 81, (S)-N-(Isoquinolin-6-yl)-1-(2-((1-(2-((2R,5R)-2-(methoxymethyl)-5-methylpiperazin-1-yl)acetyl)-3,3-dimethyl-2,3-dihydro-1H-pyrrolo[3,2-b]pyridin-6-yl)methyl)phenoxy)-17-phenyl-3,6,9,12-tetraoxa-15-azaoctadecan-18-amide] |

The next lines start with the compound.

| Compound | inhibition at 1 µM [%] | inhibition at 10 µM [%] |
| --- | --- | --- |
| C[C@@H]1CN(CC(=O)N2CC(C)(C)c3ncc(Cc4ccc(F)cc4)cc32)[C@@H](CN(C)CCOCCOCCOCCOCCOCCN[C@H](C)c2ccc(C(=O)Nc3ccncc3)cc2)CN1 [Example 5, 4-((R)-1-((2R,5R)-1-(2-(6-(4-Fluorobenzyl)-3,3-dimethyl-2,3-dihydro-1H-pyrrolo[3,2-b]pyridin-1-yl)-2-oxoethyl)-5-methylpiperazin-2-yl)-2-methyl-5,8,11,14,17-pentaoxa-2,20-diazadocosan-21-yl)-N-(pyridin-4-yl)benzamide] | 25 to 50 | < 25 |
| COC[C@H]1CN[C@H](C)CN1CC(=O)N1CC(C)(C)c2nc(CN(C)CCOCCOCCOCCOCCN[C@H](Cc3cccc(F)c3)C(=O)Nc3ccc(-c4ccncc4)cc3)c(Cc3ccc(F)cc3)cc21 [Example 32, (R)-18-(3-Fluorobenzyl)-1-(6-(4-fluorobenzyl)-1-(2-((2R,5R)-2-(methoxymethyl)-5-methylpiperazin-1-yl)acetyl)-3,3-dimethyl-2,3-dihydro-1H-pyrrolo[3,2-b]pyridin-5-yl)-2-methyl-N-(4-(pyridin-4-yl)phenyl)-5,8,11,14-tetraoxa-2,17-diazanonadecan-19-amide] | < 25 | ≥ 75 |
| COC[C@H]1CN[C@H](C)CN1CC(=O)N1CC(C)(C)c2nc(CN(C)CCOCCOCCOCCOCCOCCOCCOCCN[C@H](C)c3ccc(C(=O)Nc4ccncc4)cc3)c(Cc3ccc(F)cc3)cc21 [Example 28, 4-((R)-1-(6-(4-Fluorobenzyl)-1-(2-((2R,5R)-2-(methoxymethyl)-5-methylpiperazin-1-yl)acetyl)-3,3-dimethyl-2,3-dihydro-1H-pyrrolo[3,2-b]pyridin-5-yl)-2-methyl-5,8,11,14,17,20,23-heptaoxa-2,26-diazaoctacosan-27-yl)-N-(pyridin-4-yl)benzamide] | 50 to 75 | < 25 |
| COC[C@H]1CN[C@H](C)CN1CC(=O)N1CC(C)(C)c2nc(CN(C)CCOCCN[C@H](C)c3ccc(C(=O)Nc4ccncc4)cc3)c(Cc3ccc(F)cc3)cc21 [Example 22, 4-((R)-1-((2-(2-(((6-(4-Fluorobenzyl)-1-(2-((2R,5R)-2-(methoxymethyl)-5-methylpiperazin-1-yl)acetyl)-3,3-dimethyl-2,3-dihydro-1H-pyrrolo[3,2-b]pyridin-5-yl)methyl)(methyl)amino)ethoxy)ethyl)amino)ethyl)-N-(pyridin-4-yl)benzamide] | < 25 | ≥ 75 |
| COC[C@H]1CN[C@H](C)CN1CC(=O)N1CC(C)(C)c2ncc(Cc3cccc(OCCOCCOCCOCCOCCN[C@H](Cc4cccc(F)c4)C(=O)Nc4ccc(-c5ccncc5)cc4)c3)cc21 [Example 53, (R)-2-(3-Fluorobenzyl)-17-(3-((1-(2-((2R,5R)-2-(methoxymethyl)-5-methylpiperazin-1-yl)acetyl)-3,3-dimethyl-2,3-dihydro-1H-pyrrolo[3,2-b]pyridin-6-yl)methyl)phenoxy)-N-(4-(pyridin-4-yl)phenyl)-6,9,12,15-tetraoxa-3-azaheptadecanamide] | < 25 | 50 to 75 |
| COC[C@H]1CN[C@H](C)CN1CC(=O)N1CC(C)(C)c2nc(CN(C)CCOCCOCCOCCOCCOCCN[C@H](C)c3ccc(C(=O)Nc4ccncc4)cc3)c(Cc3ccc(F)cc3)cc21 [Example 26, 4-((R)-1-(6-(4-Fluorobenzyl)-1-(2-((2R,5R)-2-(methoxymethyl)-5-methylpiperazin-1-yl)acetyl)-3,3-dimethyl-2,3-dihydro-1H-pyrrolo[3,2-b]pyridin-5-yl)-2-methyl-5,8,11,14,17-pentaoxa-2,20-diazadocosan-21-yl)-N-(pyridin-4-yl)benzamide] | 50 to 75 | ≥ 75 |
| COC[C@H]1CN[C@H](C)CN1CC(=O)N1CC(C)(C)c2ncc(Cc3ccccc3OCCOCCN[C@H](C)c3ccc(C(=O)Nc4ccncc4)cc3)cc21 [Example 64, 4-((R)-1-((2-(2-(2-((1-(2-((2R,5R)-2-(Methoxymethyl)-5-methylpiperazin-1-yl)acetyl)-3,3-dimethyl-2,3-dihydro-1H-pyrrolo[3,2-b]pyridin-6-yl)methyl)phenoxy)ethoxy)ethyl)amino)ethyl)-N-(pyridin-4-yl)benzamide] | < 25 | 50 to 75 |
